From patent publication US10463630B2, “Interaction of methylated LSD1 and CHD1, a compound inhibiting this interaction for use in therapy, and a screening method for such a compound” (Albert-Ludwigs-Universität Freiburg, priority 2015, dated 2019)
Where a chain is given by its changes, count along the chain named.

Columns and labels:
LNCaP cells [1] = conditions: DHT 10^−6 M, 3 days, FIG. 4f
Experimental: Expression analysis of TMPRSS2-ERG (FIG. 4f) was done essentially as previously described. […] HPRT was used for normalization.
(§1) LNCaP cells were cultured and transfected as described^10. […] For FISH and analysis of TMPRSS2-ERG expression (FIG. 4f,g) cells were transfected with siRNAs height and five days before harvesting; DHT 10^−6 M was added to the cells as indicated 3 days before harvesting. […] Cells were cultivated for 3 days (FIG. 4f, g) with DHT 10^−6 M as indicated.

LNCaP cells [2] = assay: Chromatin immunoprecipitation (ChIP) at AREs of TMPRSS2 and KLK3 enhancers; type: cell-based, human; conditions: for chromatin occupancy of G9A: presence or absence of DHT and Bix-01294
Experimental: ChIP experiments were performed essentially as previously described^10. LNCaP and LAPC4 cells were cultured for 210 min in the absence or presence of 1×10^-7 M DHT as indicated. Three days before harvesting, cells were transfected with siRNA against LSD110, G9A20, or CHD121 that were previously described and validated using Dharmafect2 (Thermo Scientific) following the manufacturer's instructions. Immunoprecipitation was performed with specific antibodies (α-AR (N-20), #sc-816, lot A0207, Santa Cruz), α-LSD1 (#20752, Schuele Laboratory), α-LSD1 K114me2 (#4871, Schuele Laboratory), α-CHD1 (#A301-218A, lot A301-218A-1, Bethyl Laboratories), α-G9A (#ab40542, lot GR170862-1, Abcam) on protein A-Sepharose 4B (GE-Healthcare). For PCR, 2 μl out of 70 μl DNA extract were used. Primer sequences were as follows: TMPRSS2 enhancer (−13782/−13866) 5′-[…]-3′ (SEQ ID NO:1) and 5′-[…]-3′ (SEQ ID NO:2); KLK3 enhancer (−3980/−4048) 5′-[…]-3′ (SEQ ID NO:3) and 5′-[…]-3′ (SEQ ID NO:4); control (chr6:151953789-151953927) 5′-[…]-3′ (SEQ ID NO:5) and 5′-[…]-3′ (SEQ ID NO:6).
LNCaP cells were cultured and transfected as described^10.

LNCaP cells [3] = conditions: DHT 10^−6 M, 3 days, FIG. 4g
Experimental: as §1
To determine TMPRSS2-ERG fusion status in LNCaP cells, a FISH break-apart assay was performed as described previously^41. The FISH probe consists of two BAC clones spanning the centromeric and telomeric region of the ERG locus on chromosome 21q22.2: RP11-24A11 labelled with biotin-14-dCTP (red) and RP11-137J13 labelled with digoxigenin-dUTP (green). After harvesting, LNCaP cells were incubated with 0.075 M KCl at 37° C. for 15 min and fixed on slides (acetic acid/methanol 1:3). Slides were pre-treated with 2×SSC at 37° C. for 60 min, digested with 1:25 Digest-A11 III at 37° C. for 6 min and dehydrated in an ascending ethanol series. The probes were denatured at 73° C. for 5 min and subsequently co-denaturized with the cells (85° C., 4 min). Hybridization of the two probes was performed at 37° C. overnight. […] Finally slides were counterstained with DAPI and mounted and independently evaluated by two persons.

LNCaP cells [4] = test system: LNCaP cells
Experimental: LNCaP cells were grown for 72 hours in medium supplemented with 10% double-stripped FCS, treated for 210 min with or without DHT 10^−7 M, washed in PBS, and trypsinized 2 min at 37° C. After washing, cells were resuspended in PBS, filtered through a 40 μm cell strainer and collected in an ice cold 2% formaldehyde solution. After 15 min incubation at 4° C., fixation was stopped by adding glycine and cells were pelleted. After washing, cells were resuspended in nuclear isolation buffer (10 mM HEPES-KOH pH 7.9, 1.5 mM MgCl2, 10 mM KCl, 0.5 mM DTT, Complete protease inhibitor cocktail, Roche), allowed to swell on ice for 10 min, vortexed for 10 seconds at low speed, and pelleted. Isolated nuclei were resuspended in NEB restriction buffer, SDS was added to a final concentration of 0.5%, and nuclei were incubated for 1 h at 37° C. while shaking. Upon addition of Triton X-100, samples were incubated for 1 h at 37° C. to sequester SDS. 50 μl of the sample were taken and used as an undigested control. 600 U restriction enzyme were added and samples were incubated overnight at 37° C. while shaking. 40 μl 20% SDS solution was added and incubated for 20 min at 65° C. to inactivate the restriction enzyme. […] Purified DNA samples were analyzed on a Roche LightCycler®480 by TaqMan-based qPCR. […] To verify Enhancer-Breakpoint PCR product, samples were analyzed on a 2% agarose gel and sequenced.

CHD1 D425A = molecular target: T1, CHD1 D425A (Homo sapiens, UniProt O14646, D425A); assay: ITC with CHD1 D425A mutant; type: binding; conditions: data not shown
T1 construct: titration of LSD1aa104-127 K114me0, 1, 2, and 3 peptides to CHD1aa270-443; made in house; E. coli likely, inferred from the pET15b vector of the wild-type fragment
T1 sequence (O14646 270-443 D425A): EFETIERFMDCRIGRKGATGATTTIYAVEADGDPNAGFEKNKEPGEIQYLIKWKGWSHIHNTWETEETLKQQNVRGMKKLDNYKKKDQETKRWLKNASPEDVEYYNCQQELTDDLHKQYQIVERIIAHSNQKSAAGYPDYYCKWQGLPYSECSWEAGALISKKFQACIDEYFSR
Text: Amino acid residues 110-116 of the LSD1 peptide were modelled according to the electron density (FIG. 2c). […] This interaction involves residues Y295, W322, W325 from chromodomain 1 and D408 and D425 from chromodomain 2 (FIG. 2b and FIG. 5a). The methylammonium group of LSD1 K114 and side chains of W322 and W325 of CHD1 form cation-π interactions. […] It was therefore hypothesized that the R113-D425 interaction may be a discriminating feature of CHD1 binding either LSD1 K114me2 or H3K4me3 peptide and that the corresponding surface could be exploited for the design of inhibitors specifically interfering with LSD1 K114me2 but not H3K4me3 interaction (see FIG. 5c). […] Next, it was tested whether in vivo the interaction of CHD1 with LSD1 depends on LSD1 methylation. In the presence of G9A, endogenous CHD1 only coimmunoprecipitated with methylated Flag-LSD1, but not with Flag-LSD1 K114A (FIG. 2d). To investigate whether CHD1 and LSD1 K114me2 are present in the same protein complex, LNCaP cell extracts were subjected to sucrose gradient centrifugation. […] Furthermore, endogenously expressed CHD1 and LSD1 K114me2 coimmunoprecipitated with G9A from LNCaP cell extracts (FIG. 2f). Together, these observations identify CHD1 as a LSD1 K114me2 reader.
ITC experiments were performed at 25° C. with a MicroCal VP-ITC microcalorimeter (GE Healthcare). […]

LAPC4 cells [5] = assay: Chromosome conformation capture (3C), TMPRSS2 enhancer-breakpoint loop; type: cell-based; conditions: DHT, Bix-01294, FIG. 4b
Experimental: LNCaP cells were grown for 72 hours in medium supplemented with 10% double-stripped FCS, treated for 210 min with or without DHT 10^−7 M, washed in PBS, and trypsinized 2 min at 37° C. After washing, cells were resuspended in PBS, filtered through a 40 μm cell strainer and collected in an ice cold 2% formaldehyde solution. After 15 min incubation at 4° C., fixation was stopped by adding glycine and cells were pelleted. After washing, cells were resuspended in nuclear isolation buffer (10 mM HEPES-KOH pH 7.9, 1.5 mM MgCl2, 10 mM KCl, 0.5 mM DTT, Complete protease inhibitor cocktail, Roche), allowed to swell on ice for 10 min, vortexed for 10 seconds at low speed, and pelleted. Isolated nuclei were resuspended in NEB restriction buffer, SDS was added to a final concentration of 0.5%, and nuclei were incubated for 1 h at 37° C. while shaking. Upon addition of Triton X-100, samples were incubated for 1 h at 37° C. to sequester SDS. 50 μl of the sample were taken and used as an undigested control. 600 U restriction enzyme were added and samples were incubated overnight at 37° C. while shaking. 40 μl 20% SDS solution was added and incubated for 20 min at 65° C. to inactivate the restriction enzyme. […] Purified DNA samples were analyzed on a Roche LightCycler®480 by TaqMan-based qPCR. […] To verify Enhancer-Breakpoint PCR product, samples were analyzed on a 2% agarose gel and sequenced. […]

LAPC4 cells [6] = assay: Expression of androgen-regulated genes (quantitative RT-PCR); type: cell-based; conditions: 1×10^−5 M Bix-01294, FIG. 3k
LNCaP cells [7] = assay: as above; type: cell-based, human; conditions: 1×10^−5 M Bix-01294, FIG. 3j
CHD1aa270-443 = molecular target: T2, CHD1aa270-443 (Homo sapiens, UniProt O14646); assay: Isothermal titration calorimetry (ITC) of peptides titrated to CHD1; type: binding; conditions: FIG. 2a
T2 construct: titration of LSD1aa104-127 K114me0, 1, 2, and 3 peptides to CHD1aa270-443; made in house; E. coli likely, inferred from the pET15b vector
T2 sequence (O14646 270-443): T1 sequence (O14646 270-443 D425A) with A156D
Experimental: ITC experiments were performed at 25° C. with a MicroCal VP-ITC microcalorimeter (GE Healthcare). Experiments were performed by injecting 12 μl of peptide (1.5 mM) into the sample cell containing 100 μM CHD1 in 20 mM BTP pH 8, 75 mM NaCl. A total of 24 injections were performed with a spacing of 240 s and a reference power of […]. Automated baseline assignment and peak integration were performed with NITPIC version 1.0.1.^26. Isotherms were plotted, with a single-site binding model, using SEDPHAT version 10.58d^26. Isotherms were subsequently validated by one dimensional error surface projections in SEDFIT^27.

[8] = molecular target: T3, CHD1 double chromodomain (GST-CHD1 Chromo 1/2) (Homo sapiens, UniProt O14646); assay: Protein profiling on protein-domain microarrays with LSD1 peptides; type: binding; conditions: GST-fusion proteins
T3 sequence (O14646 268-443 limits assumed): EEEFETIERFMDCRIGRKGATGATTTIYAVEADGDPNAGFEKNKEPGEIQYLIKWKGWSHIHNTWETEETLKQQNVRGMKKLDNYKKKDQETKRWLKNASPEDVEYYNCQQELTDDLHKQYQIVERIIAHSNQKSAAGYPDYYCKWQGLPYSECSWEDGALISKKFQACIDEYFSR
Experimental: To identify potential LSD1 K114me2 methyl-lysine reader proteins, protein profiling was performed on protein-domain microarrays using un- and dimethylated LSD1 peptides LSD1aa104-127 and LSD1aa104-127 K114me2, respectively (see also ref.^14). In this profiling assay, several GST-fusion proteins including CHD1 fused to GST were used. Other GST-fusions that were used were e.g. PhD-domain proteins (BPTF, ING2 or PHF2), BROMO-domain proteins (GCN5, TAF1-D1 or TAF1-D2), or BRCT-proteins (BRCA1, 53BP1 or Crb2).

## C[C@]12CCC(=O)C[C@@H]1CC[C@@H]1[C@@H]2CC[C@]2(C)[C@@H](O)CC[C@@H]12 [DHT, dihydrotestosterone]
LNCaP cells [1]
  TMPRSS2-ERG transcript: led to the production of TMPRSS2-ERG transcript
LNCaP cells [2]; ChIP
  chromatin occupancy of G9A: not altered
LNCaP cells [2]; DHT 10^−7 M, 210 min, ChIP
  LSD1 K114me2 levels and CHD1 and AR occupancy of the TMPRSS2 and KLK3 genes: elevated LSD1 K114me2 levels accompanied by increased CHD1 and AR occupancy
LNCaP cells [3]
  ERG rearrangements by FISH: induced ERG rearrangements
LNCaP cells [4]; DHT 10^−7 M, 210 min, 3C
  TMPRSS2 enhancer-breakpoint interactions: enhancer-breakpoint interactions upon treatment with DHT was observed

## H3K4me3 peptide: histone 3 peptide modified at lysine residue 4 by three methyl-groups
CHD1 D425A
  effect of D425A mutation in CHD1 on peptide binding: only mildly affected

## COc1cc2nc(N3CCCN(C)CC3)nc(NC3CCN(Cc4ccccc4)CC3)c2cc1OC [Bix-01294]
LAPC4 cells [5]
  androgen-dependent TMPRSS2 enhancer-breakpoint loop formation: blocked this loop formation
LAPC4 cells [6]
  DHT-induced expression of TMPRSS2, KLK3, PRDM4, ELK4, GREB1, IGF1R, FKBP5, or EGFR: greatly reduced
LNCaP cells [2]; ChIP
  chromatin occupancy of G9A: not altered
LNCaP cells [2]; DHT, 1×10^−5 M Bix-01294, ChIP, FIG. 3g
  androgen-induced methylation of LSD1 and androgen-induced recruitment of CHD1 and AR: blocked
LNCaP cells [7]
  DHT-induced expression of TMPRSS2, KLK3, PRDM4, ELK4, GREB1, IGF1R, FKBP5, or EGFR: greatly reduced
LNCaP cells [4]; DHT, Bix-01294, FIG. 4a
  androgen-dependent TMPRSS2 enhancer-breakpoint loop formation: blocked this loop formation

## Unmethylated H3 peptide: unmethylated histone H3 peptide
CHD1aa270-443
  binding to GST-CHD1 Chromo 1/2: did not bind

## Unmethylated LSD1: unmethylated LSD1 peptide LSD1aa104-127 (TPEGRRTSRRKRAKVEYREMDESL)
CHD1aa270-443
  binding to GST-CHD1 Chromo 1/2: did not bind
[8]
  interaction with CHD1 double chromodomain on microarray: not
